From ChEMBL document CHEMBL6096653, “α-GalCer sp2-iminoglycolipid analogs as CD1d-dependent iNKT modulators: Evaluation of their immunotherapeutic potential in murine models of asthma and autoimmune hepatitis” (Eur J Med Chem, 2025)
The source made the active and inactive calls. No cut-off for these calls is given here.

Tests used:
Splenocyte [1] = test: Immunostimulatory activity in BALB/c mouse Splenocyte assessed as induction of IFNgamma level at 25 uM incubated for 48 hrs by ELISA analysis; type: functional, cell-based
Splenocyte [2] = test: Immunostimulatory activity in BALB/c mouse Splenocyte assessed as induction of IL-4 level at 25 uM incubated for 48 hrs by ELISA analysis; type: functional, cell-based
[3] = tested on: iNKT hybridoma DN3A4-1.2 cell; test: Immunostimulatory activity in mouse iNKT hybridoma DN3A4-1.2 cell assessed as induction of IL-2 secretion at 10 to 25 uM incubated for 48 hrs in presence of alpha-GalCer by ELISA analysis; type: functional, cell-based; conditions: dose 10-25 µM
[4] = tested on: iNKT hybridoma DN3A4-1.2 cell; test: Immunostimulatory activity in mouse iNKT hybridoma DN3A4-1.2 cell assessed as induction of IL-2 level at 10 to 25 uM incubated for 48 hrs by ELISA analysis; type: functional, cell-based; conditions: dose 10-25 µM
Mus musculus [5] = test: Anti-asthmatic activity in alpha-Galcer-induced female BALB/c mouse model assessed as reduction in IL-6 mRNA level in lung at 20 microg/g ip measured after 24 hrs by RT-PCR analysis; type: functional, organism-based; conditions: dose 20.0 µg/g
Splenocyte [6] = test: Immunostimulatory activity in Cd1d knockout BALB/c mouse Splenocyte assessed as effect on of IFNgamma level at 10 to 25 uM incubated for 48 hrs by ELISA analysis; type: functional, cell-based; conditions: dose 10-25 µM
Splenocyte [7] = test: Immunostimulatory activity in Cd1d knockout BALB/c mouse Splenocyte assessed as effect on of IL-4 level at 10 to 25 uM incubated for 48 hrs by ELISA analysis; type: functional, cell-based; conditions: dose 10-25 µM
Splenocyte [8] = test: Immunostimulatory activity in BALB/c mouse Splenocyte assessed as induction of IFNgamma level at 10 to 25 uM incubated for 48 hrs by ELISA analysis; type: functional, cell-based; conditions: dose 10-25 µM
Splenocyte [9] = test: Immunostimulatory activity in BALB/c mouse Splenocyte assessed as induction of IL-4 level at 10 to 25 uM incubated for 48 hrs by ELISA analysis; type: functional, cell-based; conditions: dose 10-25 µM
Mus musculus [10] = test: Immunostimulatory activity in Th1-biased (OT-1) C57BL/6 mouse model transplanted with mouse Splenocyte assessed as increase in OVA-specific CD8+ T cells proliferation at 1 to 400 ug, ip pretreated with compound and ovalbumin for 2 hrs and measured after 2 days by flow cytometry analysis; type: functional, organism-based; conditions: dose 1-400 µg, time 50.0 hrs
Mus musculus [11] = test: Immunostimulatory activity in Th1-biased (OT-1) C57BL/6 mouse model transplanted with mouse Splenocyte assessed as increase in OVA-specific CD8+ T cells proliferation at 1 to 400 ug, ip pretreated with compound and ovalbumin for 2 hrs and measured after 3 days by flow cytometry analysis; type: functional, organism-based; conditions: dose 1-400 µg, time 74.0 hrs
Mus musculus [12] = test: Immunostimulatory activity in ip dosed Th1-biased (OT-1) C57BL/6 mouse model transplanted with mouse Splenocyte assessed as increase in OVA-specific CD8+ T cells proliferation pretreated with compound and ovalbumin for 2 hrs and measured after 2 days by flow cytometry analysis; type: functional, organism-based; conditions: dose 400.0 µg, time 50.0 hrs
Mus musculus [13] = test: Immunostimulatory activity in ip dosed Th1-biased (OT-1) C57BL/6 mouse model transplanted with mouse Splenocyte assessed as increase in OVA-specific CD8+ T cells proliferation pretreated with compound and ovalbumin for 2 hrs and measured after 3 days by flow cytometry analysis; type: functional, organism-based; conditions: dose 400.0 µg
[14] = Toxicity in C57BL/6J mouse assessed as liver damage at 20 microg/g, ip measured after 18 hrs by H and E staining based analysis; type: organism-based; conditions: in vivo, dose 20 µg/g
[15] = Toxicity in C57BL/6J mouse assessed as decrease in AST level in serum at 20 microg/g, ip measured after 18 hrs; type: organism-based; conditions: in vivo, dose 20 µg/g
[16] = Toxicity in C57BL/6J mouse assessed as decrease in ALT level in serum at 20 microg/g, ip measured after 18 hrs; type: organism-based; conditions: in vivo, dose 20 µg/g
Mus musculus [17] = test: Anti-inflammatory activity in ConA-induced autoimmune hepatitis C57BL/6 mouse model assessed as reduction in IL-6 level in serum at 20 microg/g, ip pretreated with ConA for 18 hrs followed by compound addition and measured after 18 hrs; type: functional, organism-based; conditions: dose 20.0 µg/g
Mus musculus [18] = test: Anti-inflammatory activity in ConA-induced autoimmune hepatitis C57BL/6 mouse model assessed as reduction in TNF-alpha level in serum at 20 microg/g, ip pretreated with ConA for 18 hrs followed by compound addition and measured after 18 hrs; type: functional, organism-based; conditions: dose 20.0 µg/g
Mus musculus [19] = test: Anti-asthmatic activity in alpha-Galcer-induced female BALB/c mouse model assessed as inhibition of airway hyperreactivity at 20 microg/g ip measured after 24 hrs; type: functional, organism-based; conditions: dose 20.0 µg/g
Mus musculus [20] = test: Anti-asthmatic activity in alpha-Galcer-induced female BALB/c mouse model assessed as reduction in TNF-alpha mRNA level in lung at 20 microg/g ip measured after 24 hrs by RT-PCR analysis; type: functional, organism-based; conditions: dose 20.0 µg/g
Mus musculus [21] = test: Anti-asthmatic activity in alpha-Galcer-induced female BALB/c mouse model assessed as reduction in Muc5ac mRNA level in lung at 20 microg/g ip measured after 24 hrs by RT-PCR analysis; type: functional, organism-based; conditions: dose 20.0 µg/g
Mus musculus [22] = test: Anti-asthmatic activity in alpha-Galcer-induced female BALB/c mouse model assessed as reduction in Gob5 mRNA level in lung at 20 microg/g ip measured after 24 hrs by RT-PCR analysis; type: functional, organism-based; conditions: dose 20.0 µg/g
Splenocyte [23] = test: Cytotoxicity against mouse Splenocyte assessed as cell viability at 25 uM by AlamarBlue assay; type: toxicity, cell-based

Structure (SMILES) | Activity (Splenocyte [1]) | Activity (Splenocyte [2]) | Activity [3] | Activity [4] | Activity (Splenocyte [6]) | Activity (Splenocyte [7]) | Activity (Splenocyte [9]) | further results
CCCCCCCCCCCCCC[C@@H](O)[C@@H](O)[C@H](CO[C@@H]1[C@H](O)[C@@H](O)[C@@H](O)[C@H]2COC(=O)N21)n1cc(CCCC)nn1 | inactive | – | – | – | – | – | – | –
CCCCCCCCCCCCCCCCCCCCCCCCCC(=O)N[C@@H](CO[C@@H]1[C@H](O)[C@@H](O)[C@@H](O)[C@H]2COC(=O)N21)[C@H](O)[C@H](O)CCCCCCCCCCCCCC | inactive | inactive | Active | inactive | – | – | – | –
CCCCCCCCCCCCCC[C@@H](O)[C@@H](O)[C@H](CO[C@@H]1[C@H](O)[C@@H](O)[C@@H](O)[C@H]2COC(=O)N21)n1cc(CCCCCCCC)nn1 | Active | Active | Active | Active | inactive | inactive | Active | Activity (Mus musculus [5]): Active; Activity (Splenocyte [8]): Active; Activity (Mus musculus [10]): Active; Activity (Mus musculus [11]): Active; Activity (Mus musculus [12]): Dose-dependent-effect; Activity (Mus musculus [13]): Dose-dependent-effect; Activity [14]: Non-toxic; Activity [15]: Non-toxic; Activity [16]: Non-toxic; Activity (Mus musculus [17]): Active; Activity (Mus musculus [18]): Active; Activity (Mus musculus [19]): Active; Activity (Mus musculus [20]): Active; Activity (Mus musculus [21]): Active; Activity (Mus musculus [22]): Active
CCCCCCCCCCCCCCCCCCCCCCCCCC(=O)N[C@@H](CO[C@@H]1[C@H](O)[C@@H](O)[C@H](O)[C@H]2COC(=O)N21)[C@H](O)[C@H](O)CCCCCCCCCCCCCC | inactive | inactive | Active | inactive | – | – | – | –
CCCCCCCCCCCCCC[C@@H](O)[C@@H](O)[C@H](CO[C@@H]1[C@H](O)[C@@H](O)[C@@H](O)[C@H]2COC(=O)N21)n1cc(CCCCCC)nn1 | inactive | Active | – | – | inactive | inactive | Active | Activity (Splenocyte [23]): Toxic
CCCCCCCCCCCCCC[C@@H](O)[C@@H](O)[C@H](CO[C@@H]1[C@H](O)[C@@H](O)[C@@H](O)[C@H]2COC(=O)N21)n1cc(CCCCCCCCCCCC)nn1 | inactive | Active | – | – | inactive | inactive | Active | –
